In patent US20230146675A1, “PYRIMIDO[5,4-d]PYRIMIDINE DERIVATIVES AS ENT INHIBITORS FOR THE TREATMENT OF CANCERS, AND COMBINATION THEREOF WITH ADENOSINE RECEPTOR ANTAGONISTS” (ITEOS BELGIUM SA, priority 2020, published 2023):
Read-outs that look alike come from different tables or passages of the source.

Legend:
[1] = biological target: T1, Human phosphodiesterase-10A2 (Homo sapiens, UniProt Q9Y233); test: PDE10A2 (h) assay; format: biochemical
T1 construct: host or cells: Sf9 cells
Method: (§1) The test compound (compound 72), reference compound or water (control) were added to a buffer containing 40 mM Tris/HCl (pH 7.4) and 8 mM MgCl2, 180 nM cAMP and 0.1 μCi [3H]cAMP. Thereafter, the reaction was initiated by addition of the enzyme (about 0.8 U) and the mixture was incubated for 20 min at 22° C. For basal control measurements, the enzyme was omitted from the reaction mixture. Following incubation SPA beads were added. After 30 min at 22° C. under shaking, the amount of [3H]5′AMP was quantified with a scintillation counter (MicroBeta, Perkin Elmer). The results were expressed as a percent inhibition of the control enzyme activity. The standard inhibitory reference compound was trequinsin, which was tested in each experiment at several concentrations to obtain an inhibition curve from which its IC50 value was calculated. • Human phosphodiesterase-10A2 quantified by measuring the formation of 5′AMP from cAMP using a human recombinant enzyme expressed in Sf9 cells.
(§2) The test compound (compound 72), reference compound or water (control) were added to a buffer containing 40 mM Tris/HCl (pH 7.4) and 8 mM MgCl2, 180 nM cAMP and 0.1 μCi [3H]cAMP. […] After 30 min at 22° C. under shaking, the amount of [3H]5′AMP was quantified with a scintillation counter (MicroBeta, Perkin Elmer). The results were expressed as a percent inhibition of the control enzyme activity. […]

[2] = test system: stimulated primary human T cells; test: T cell proliferation assay (rescue of proliferation in presence of 100 uM ATP); format: cell-based
Method: Purpose. The aim of this study was to determine the potency of equilibrative nucleoside transporter 1 (ENT1) inhibitors to rescue proliferation by stimulated primary human T cells incubated in the presence of 100 uM Adenosine triphosphate (ATP) with: • Condition A: X-VIVO15 • Condition B: X-VIVO15, 2% Human Serum Albumine (HSA) and 0.1% α-1-Acid Glycoprotein (AAG)
Method. Cryopreserved purified human CD3+ T cells were thawed and washed twice with RPMI1640 medium, UltraGlutamine containing 10% hiFBS.
Cells were suspended in PBS containing 10% hiFBS. Cells were stained with CFSE by adding 2 μM solution in PBS, to get a final 1 μM CFSE solution. Cells were incubated while rotating for 5 minutes. Reaction was stopped by adding PBS with 10% FBS and cells were centrifuged for 5 minutes at 1500 rpm.
Cells were resuspended at 1.6×10^6 cells/mL, either in X-VIVO15 medium or in 4% Human Serum Albumin and 0.2% α-1-Acid Glycoprotein. 50 μL of cell suspension (8×10^4 T cells) was added to wells of sterile round-bottom 96-well plates. Cells were activated by adding 50 μL of anti-CD3 anti-CD28 coated microbeads, suspended either in XVIVO-15 medium or in 4% HSA and 0.2% α-1-Acid Glycoprotein, at a ratio of one microbead per two cells.
Serial dilutions of the ENT1 inhibitors were prepared in X-VIVO15 from 10 mM stock solutions in DMSO, and 50 μL was added to the wells.
ATP powder was diluted in X-VIVO15, and 50 μL of this compound was added to the wells to reach a final assay concentration of 100 μM. Final volume of 200 μL.
The experiments were also performed in 384 well plates—all volumes reduced by a factor of 4 ([…]) with a final volume of 50 μL.
Experiments were performed in duplicate. The cells were placed in a 37° C. humidified tissue culture incubator with 5% CO2 for 72 hours for 96 well plates, 96 hours for 384 well plates. After 72 or 96 hours, proliferation was measured determined by CFSE dilution via flow cytometry.
Results. Compounds of the invention have good ENT1 inhibitory properties.

[3] = biological target: T2, Human phosphodiesterase-8A1 (Homo sapiens, UniProt O60658); test: PDE8A1 (h) assay; format: biochemical
T2 construct: host or cells: Sf9 cells
Method: as §1, with “63” for “180”, “0.035” for “0.1”, “0.6” for “0.8”, “BRL50481,” for “trequinsin,”, “phosphodiesterase-8A1” for “phosphodiesterase-10A2”, “cells” for “cells.”
as §2

[4] = biological target: T3, Human phosphodiesterase-4A1A (Homo sapiens, UniProt P27815); test: PDE4A1A (h) assay; format: biochemical
T3 construct: host or cells: Sf9 cells
Method: The test compound (compound 72), reference compound or water (control) were added to a buffer containing 40 mM Tris/HCl (pH 7.4) and 8 mM MgCl2, 450 nM cAMP and 0.25 μCi [3H]cAMP. Thereafter, the reaction was initiated by addition of the enzyme (about 3 U) and the mixture was incubated for 20 min at 22° C. For basal control measurements, the enzyme was omitted from the reaction mixture. Following incubation SPA beads were added. After 30 min at 22° C. under shaking, the amount of [3H]5′AMP was quantified with a scintillation counter (MicroBeta, Perkin Elmer). The results were expressed as a percent inhibition of the control enzyme activity.
as §1, with “450” for “180”, “0.25” for “0.1”, “Thereafter, the reaction was initiated by addition of the enzyme (about 0.8 U) and the mixture was incubated for 20 min at 22° C. For basal control measurements, the enzyme was omitted from the reaction mixture. Following incubation SPA beads were added.” left out, “Ro 20-1724,” for “trequinsin,”, “phosphodiesterase-4B1” for “phosphodiesterase-10A2”

T2 sequence (O60658 whole entry): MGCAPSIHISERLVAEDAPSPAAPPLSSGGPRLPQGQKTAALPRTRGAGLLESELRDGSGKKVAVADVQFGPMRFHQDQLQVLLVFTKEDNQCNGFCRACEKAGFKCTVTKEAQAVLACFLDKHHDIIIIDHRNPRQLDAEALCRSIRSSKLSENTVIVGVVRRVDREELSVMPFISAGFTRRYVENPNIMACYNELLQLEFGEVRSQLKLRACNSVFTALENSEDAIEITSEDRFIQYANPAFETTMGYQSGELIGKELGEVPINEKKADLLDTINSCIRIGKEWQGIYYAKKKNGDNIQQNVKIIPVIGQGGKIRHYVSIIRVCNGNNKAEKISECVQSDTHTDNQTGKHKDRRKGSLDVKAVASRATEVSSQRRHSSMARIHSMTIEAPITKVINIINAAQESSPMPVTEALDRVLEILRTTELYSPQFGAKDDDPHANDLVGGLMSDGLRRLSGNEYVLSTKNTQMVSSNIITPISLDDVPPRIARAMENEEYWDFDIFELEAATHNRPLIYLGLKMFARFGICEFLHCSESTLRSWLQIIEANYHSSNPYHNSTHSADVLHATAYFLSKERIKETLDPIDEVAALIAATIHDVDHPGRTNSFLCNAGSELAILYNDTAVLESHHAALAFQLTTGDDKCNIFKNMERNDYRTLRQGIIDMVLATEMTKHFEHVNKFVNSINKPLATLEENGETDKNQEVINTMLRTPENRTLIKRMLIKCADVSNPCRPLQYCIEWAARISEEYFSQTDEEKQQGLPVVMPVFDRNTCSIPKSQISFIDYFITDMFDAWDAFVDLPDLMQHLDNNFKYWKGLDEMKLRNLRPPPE
T1 sequence (Q9Y233 267-1055): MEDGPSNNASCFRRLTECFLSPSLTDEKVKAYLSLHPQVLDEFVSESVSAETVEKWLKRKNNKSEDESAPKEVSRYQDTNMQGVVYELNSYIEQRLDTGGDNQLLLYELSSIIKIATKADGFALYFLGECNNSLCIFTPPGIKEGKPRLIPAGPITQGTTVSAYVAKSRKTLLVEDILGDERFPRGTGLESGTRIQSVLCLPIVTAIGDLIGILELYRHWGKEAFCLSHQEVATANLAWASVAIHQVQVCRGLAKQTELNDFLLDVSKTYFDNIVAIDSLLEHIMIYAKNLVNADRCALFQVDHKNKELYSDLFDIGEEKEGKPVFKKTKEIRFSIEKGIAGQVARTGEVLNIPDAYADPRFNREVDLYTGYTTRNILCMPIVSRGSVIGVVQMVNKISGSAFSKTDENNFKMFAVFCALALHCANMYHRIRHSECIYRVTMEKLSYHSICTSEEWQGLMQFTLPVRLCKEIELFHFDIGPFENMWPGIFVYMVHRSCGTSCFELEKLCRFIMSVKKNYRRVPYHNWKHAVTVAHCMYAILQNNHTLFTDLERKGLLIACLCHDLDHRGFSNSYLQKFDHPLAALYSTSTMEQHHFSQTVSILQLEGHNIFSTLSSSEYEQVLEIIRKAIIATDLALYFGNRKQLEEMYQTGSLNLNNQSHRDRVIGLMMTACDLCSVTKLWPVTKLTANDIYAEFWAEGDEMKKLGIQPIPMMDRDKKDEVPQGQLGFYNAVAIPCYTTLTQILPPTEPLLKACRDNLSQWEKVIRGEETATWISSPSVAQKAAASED
T3 sequence (P27815 1-647 isoform P27815-4): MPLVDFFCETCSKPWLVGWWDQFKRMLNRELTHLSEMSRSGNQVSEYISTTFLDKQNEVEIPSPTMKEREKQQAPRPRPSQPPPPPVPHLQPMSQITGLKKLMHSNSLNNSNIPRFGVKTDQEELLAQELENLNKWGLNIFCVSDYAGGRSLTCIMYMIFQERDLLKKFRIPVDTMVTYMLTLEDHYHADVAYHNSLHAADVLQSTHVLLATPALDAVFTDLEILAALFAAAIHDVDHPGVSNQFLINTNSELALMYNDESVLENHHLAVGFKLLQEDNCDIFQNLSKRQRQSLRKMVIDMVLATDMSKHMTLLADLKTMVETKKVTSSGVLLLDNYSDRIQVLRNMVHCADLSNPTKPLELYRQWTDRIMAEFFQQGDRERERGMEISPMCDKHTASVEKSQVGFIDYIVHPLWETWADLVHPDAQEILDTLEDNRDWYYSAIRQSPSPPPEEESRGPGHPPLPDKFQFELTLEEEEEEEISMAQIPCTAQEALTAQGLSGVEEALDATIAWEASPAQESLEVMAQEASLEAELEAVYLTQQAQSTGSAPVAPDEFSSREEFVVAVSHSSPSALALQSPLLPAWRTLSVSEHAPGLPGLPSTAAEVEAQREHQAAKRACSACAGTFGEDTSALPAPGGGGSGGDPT

IC50 [1]: 1 to 10 µM
IC50 [3]: > 10 µM
IC50 [4]: > 10 µM
Compound: COCCN(CCOC)c1nc(N2CCN(C)C(=O)C2)c2nc(N(CCOC)CCOC)nc(N3CCC(OC)CC3)c2n1 [Compound 72, 4-(2,6-bis(bis(2-methoxyethyl)amino)-8-(4-methoxypiperidin-1-yl)pyrimido[5,4-d]pyrimidin-4-yl)-1-methylpiperazin-2-one]
IC50 ([2]; Condition A: X-VIVO15, read-out: TCell proliferation (Condition A) IC50): 0.1 to 0.5 µM
IC50 ([2]; Condition B: X-VIVO15, 2% HSA and 0.1% AAG, read-out: TCell proliferation (Condition B) IC50): 0.1 to 0.5 µM
